# Data as given in US5932709A (University of Michigan, priority 1997, dated 1999).
# Legend:
# [1] = Murine P388 leukemia model in vivo; parameters: species or system mouse (B6D2F1); conditions: mouse, in vivo, ip; i.p. daily×5
# In short: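 B6D2F1 mice inoculated i.p. with 1×10^6 P388 leukemia cells (from ascites, resuspended in saline) on day 0; dosing at MTD from dose-finding in non-tumored mice where no dosing information exists. Mean survival of treated over control mice gives T/C×100% (increase in life span).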
# [2] = system: human lung tumor xenograft; assay: Human lung tumor xenograft model; type: in vivo, human tumor in nude mice
# Source text: (§1) For the human lung and prostate tumor xenograft models the following procedure was used. Nude mice were implanted s.c. by trocar with fragments of human lung or prostate carcinomas harvested from s.c. growing tumors in nude mice hosts. When tumors were approximately 5 mm×5 mm in size (usually ten to fourteen days after inoculation), the animals were pair-matched into treatment and control groups. Each group contained 10 tumored mice, each of which was ear-tagged and followed individually throughout the experiment. […] The doses, route of drug administration and schedule were selected as appropriate for the study in question. (See above protocol). […] Topotecan was run as a positive control at its MTD dose on a daily×5 and a daily×1 schedule. Male nude mice were used for both prostate studies.
# (§2) Mice are weighed twice weekly, and tumor measurements were taken by calipers twice weekly, starting on day 1.
# (§3) Some drugs cause tumor shrinkage in the human tumor xenograft models. […] A mean % tumor shrinkage can be calculated from the data from the mice in a group that experienced tumor regressions.
# [3] = system: human prostate tumor xenograft; assay: Human prostate tumor xenograft model; type: in vivo, human tumor in nude mice
# Source text: as §1, §2, §3
# [4] = Solubility of HAR7 in various solvents and solvent systems; type: physicochemical
# Protocol: In addition to testing for water solubility, one of the analogs of the present invention, HAR7, was tested for solubility in various other solvents and solvent mixtures, to determine the system which provides the greatest solubility for the analog. The results of those solubility experiments are shown below in Table 2:
# The solubility of HAR7 in various solvents and solvent systems was measured using one of two experimental methods, depending on the conditions and solvents used.
# First, an evaporation method was used in which an excess quantity of HAR7 was added to the solvent of choice. The mixture was finely divided using ultrasonic vibration in order to dissolve the material thoroughly. The resulting mixture was filtered and the solution was evaporated to dryness using a rotary evaporator.
# Second, a spectrophotometric method was used in which an excess quantity of HAR7 was added to the solvent of choice. The mixture was finely divided using ultrasonic vibration in order to dissolve the maximum amount of solid. The resulting suspension was filtered through a 0.45 μm nylon filter, and the clear solution was diluted in the same solvent and its concentration was measure spectrophotometrically, based upon an extinction coefficient of 17000 at 258 nm.
smiles,measurement,setting,value
"CC[C@@]1(O)C(=O)OCc2c1cc1n(c2=O)Cc2c-1nc1ccccc1c2CO[C@@H]1C=C[C@H](O[C@H]2O[C@H](CO)[C@@H](O)[C@H](O)[C@H]2O)[C@@H](CO)O1 [HAR6, 7-[4-O-(α-D-glucopyranosyl)-2,3-dideoxy-α-D-erythro-hex-2-enopyranosyl]-oxymethylcamptothecin]",MTD,[1],100 mg/kg
"CC[C@@]1(O)C(=O)OCc2c1cc1n(c2=O)Cc2c-1nc1ccccc1c2CO[C@@H]1C=C[C@H](O)[C@@H](CO)O1 [HAR7, 7-[2,3-dideoxy-α-D-erythro-hex-2-enopyranosyl]-oxymethylcamptothecin]",complete disappearance of tumors (animals),[2]; 30 mg/kg daily×5,2
same,Deaths,[2]; 30 mg/kg × 5 days,0/10
same,Shrink (% Tumor Shrinkage Rate),[2]; 30 mg/kg × 5 days,100%
same,Shrink (number of animals),[2]; 30 mg/kg × 5 days,2/10
same,TGI (% Tumor Growth Inhibition Rate),[2]; 30 mg/kg × 5 days,67%
same,TGI (number of animals),[2]; 30 mg/kg × 5 days,8/10
same,Deaths,[2]; 200 mg single ds,1/10
same,Shrink (% Tumor Shrinkage Rate),[2]; 200 mg single ds,67%
same,Shrink (number of animals),[2]; 200 mg single ds,2/10
same,TGI (% Tumor Growth Inhibition Rate),[2]; 200 mg single ds,64%
same,TGI (number of animals),[2]; 200 mg single ds,7/10
same,activity against lung xenograft model,[2]; in words,outstanding activity
same,"efficacy, single dose","[2]; single dose, in words",significant tumor growth inhibition
same,Deaths,[3]; 30 mg/kg × 5 days,0/10
same,Shrink (number of animals),[3]; 30 mg/kg × 5 days,0/10
same,TGI (% Tumor Growth Inhibition Rate),[3]; 30 mg/kg × 5 days,77%
same,TGI (number of animals),[3]; 30 mg/kg × 5 days,10/10
same,Deaths,[3]; 100 mg single ds,0/10
same,Shrink (% Tumor Shrinkage Rate),[3]; 100 mg single ds,20%
same,Shrink (number of animals),[3]; 100 mg single ds,1/10
same,TGI (% Tumor Growth Inhibition Rate),[3]; 100 mg single ds,51%
same,TGI (number of animals),[3]; 100 mg single ds,9/10
same,Deaths,[3]; 200 mg single ds,0/10
same,Shrink (number of animals),[3]; 200 mg single ds,0/10
same,TGI (% Tumor Growth Inhibition Rate),[3]; 200 mg single ds,80%
same,TGI (number of animals),[3]; 200 mg single ds,10/10
same,activity against prostate xenograft model,[3]; in words,outstanding activity
same,"efficacy, single dose","[3]; single dose, in words",significant tumor growth inhibition
same,solubility,"[4]; 0.1 m citrate buffer, aqueous buffer",24 µg/mL
same,solubility,"[4]; 0.2 m acetate buffer, aqueous buffer",23 µg/mL
same,solubility,"[4]; 0.2 m na2hpo4 buffer, aqueous buffer",30 µg/mL
same,solubility,"[4]; 0.2 m nah2po4 buffer, aqueous buffer",32 µg/mL
same,solubility,"[4]; 2 m acetate buffer, aqueous buffer",29 µg/mL
same,solubility,"[4]; 4:1:5 pg/ethanol/dsw, organic solvent or mixture",960 µg/mL
same,solubility,"[4]; 4:1:5 pg/ethanol/saline, organic solvent or mixture",893 µg/mL
same,solubility,"[4]; 4:1:5 pg/ethanol/water, organic solvent or mixture",740 µg/mL
same,solubility,"[4]; 5% ethanol/dsw, organic solvent or mixture",177 µg/mL
same,solubility,"[4]; 5% ethanol/water, organic solvent or mixture",80 µg/mL
same,solubility,"[4]; 10% ethanol/water, organic solvent or mixture",143 µg/mL
same,solubility,"[4]; 20% ethanol/water, organic solvent or mixture",380 µg/mL
same,solubility,"[4]; organic solvent or mixture, PEG 300 (Polyethylene Glycol 300)",> 5000 µg/mL
same,solubility,"[4]; pure ethanol, organic solvent or mixture",1980 µg/mL
